Data taken from patent US12630534B2 (TAKEDA PHARMACEUTICAL COMPANY LIMITED, priority 2020, dated 2026).

biological target: T1, human GPR139 (Homo sapiens, UniProt Q6DWJ6); assay: Inhibition rate of the amount of IP1 in GPR139-expressed CHO cells (Test Example 1, IP-ONE HTRF assay); assay type: cell-based; details: not given
T1 construct: expressed in transfected cells; host or cells: CHO-TREx (Life Technologies) cells, expression induced with doxycycline
T1 sequence (Q6DWJ6 1-353): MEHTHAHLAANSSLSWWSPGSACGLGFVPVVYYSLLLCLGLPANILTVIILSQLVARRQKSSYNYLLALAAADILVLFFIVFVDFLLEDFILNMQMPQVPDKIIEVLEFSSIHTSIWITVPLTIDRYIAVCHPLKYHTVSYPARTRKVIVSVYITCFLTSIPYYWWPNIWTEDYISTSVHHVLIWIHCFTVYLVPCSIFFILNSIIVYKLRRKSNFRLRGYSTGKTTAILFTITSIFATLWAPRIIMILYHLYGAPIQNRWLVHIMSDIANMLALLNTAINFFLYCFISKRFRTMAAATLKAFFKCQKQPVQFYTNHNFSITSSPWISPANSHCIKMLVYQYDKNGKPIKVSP
Procedure: Measurement of the Inhibition Rate of the Amount of IP1 in 30 μM of the Compound of Example 2 in GPR139-Expressed CHO Cells
Changes in the amount of IP1 in GPR139-expressed CHO cells were measured in order to evaluate the activity of the compound via GPR139. GPR139 is a Gq-coupled receptor which varies intracellular calcium (Liu C et al., Mol Pharmacol. 2015 November; 88(5):911-25), so the amount of IP1, which is a stable metabolite of the second messenger IP3, changes due to activity regulation of GPR139. GPR139 is considered to be […] when expressed recombinantly in mammal cells, so a compound having a GPR139 receptor inverse agonist action is expected to reduce the amount of IP1 production.
The measurement of IP1 was made using an IP-ONE HTFR assay kit (cis-bio) and CHO-TREx (Life Technologies) cells stably transfected with GPR139. The CHO-TREx cells expressed human GPR139 with a tetracycline-inducing element. […]
The compound was diluted with the stimulation buffer, and 4 μL was added to a 384-well white assay plate (Greiner). […] After the fluorescence strengths of two wavelengths were measured by the HTRF settings of Envision (PerkinElmer), the value of Ratio={(Signal 665 nm)/(Signal 615 nm)}×10000 was calculated.

| Compound | GPR139 receptor inverse agonist action (result in words) |
| --- | --- |
| CCn1cc(Cn2ccn(-c3cc(N4CCO[C@H](C)C4)cc(C(F)(F)F)c3F)c2=O)cn1 [Example 2, 1-[(1-Ethyl-1H-pyrazole-4-yl)methyl]-3-{2-fluoro-5-[(2R)-2-methylmorpholine-4-yl]-3-(trifluoromethyl)phenyl}-1,3-dihydro-2H-imidazole-2-one] | exhibits GPR139 receptor inverse agonist action |

biological target: T1, human GPR139; assay: Inhibition rate of the amount of IP1 in GPR139-expressed CHO cells (inverse agonist assay, Test Example 2); assay type: cell-based; details: CHO, relative value, inhibition rate of Example Compound 2 in Test Example 1 defined as 100%
Procedure, shortened: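 CHO-TREx cells with doxycycline-inducible human GPR139 (2 μg/mL, 17 h) were incubated with compound at 2000 cells/well for 40 min at 37° C. IP1 quantified by HTRF (665/615 nm ratio ×10000); inhibition rate expressed relative to a reference compound defined as […].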

| inhibition at 30 µM [%] | Compound |
| --- | --- |
| 100 | CCn1cc(Cn2ccn(-c3cc(N4CCO[C@H](C)C4)cc(C(F)(F)F)c3F)c2=O)cn1 [Example 2, 1-[(1-Ethyl-1H-pyrazole-4-yl)methyl]-3-{2-fluoro-5-[(2R)-2-methylmorpholine-4-yl]-3-(trifluoromethyl)phenyl}-1,3-dihydro-2H-imidazole-2-one] |
| 98 | CCn1cc(Cn2ccn(-c3cc(N4CCO[C@H](C)C4)cc(Cl)c3F)c2=O)cn1 [Example 32, 1-{3-chloro-2-fluoro-5-[(2R)-2-methylmorpholin-4-yl]phenyl}-3-[(1-ethyl-1H-pyrazol-4-yl)methyl]-1,3-dihydro-2H-imidazol-2-one] |
| 99 | CCn1cc(Cn2cc(C)n(-c3cc(-n4cnc(C)c4)cc(C(F)(F)F)c3)c2=O)cn1 [Example 21, 1-[(1-ethyl-1H-pyrazol-4-yl)methyl]-4-methyl-3-[3-(4-methyl-1H-imidazol-1-yl)-5-(trifluoromethyl)phenyl]-1,3-dihydro-2H-imidazol-2-one] |
| 100 | CCn1cc(Cn2ccn(-c3cc(N4C[C@@H](C)O[C@@H](C)C4)cc(C(F)(F)F)c3F)c2=O)cn1 [Example 31, 1-{5-[(2R,6S)-2,6-dimethylmorpholin-4-yl]-2-fluoro-3-(trifluoromethyl)phenyl}-3-[(1-ethyl-1H-pyrazol-4-yl)methyl]-1,3-dihydro-2H-imidazol-2-one] |
| 98 | Cc1cn(-c2cc(N3CCOC(C)(C)C3)cc(C(F)F)c2F)c(=O)n1Cc1cnn(C(C)C)c1 [Example 79, 1-[3-(difluoromethyl)-5-(2,2-dimethylmorpholin-4-yl)-2-fluorophenyl]-4-methyl-3-{[1-(propan-2-yl)-1H-pyrazol-4-yl]methyl}-1,3-dihydro-2H-imidazol-2-one] |
| 101 | CCn1cc(Cn2cc(C)n(-c3cc(-c4ccc(F)cc4)cc(C(F)(F)F)c3)c2=O)cn1 [Example 3, 1-[(1-ethyl-1H-pyrazol-4-yl)methyl]-3-[4′-fluoro-5-(trifluoromethyl)[1,1′-biphenyl]-3-yl]-4-methyl-1,3-dihydro-2H-imidazol-2-one] |
| 99 | CCn1cc(Cn2cc(C)n(-c3cc(OCC(F)(F)F)cc(N4CCO[C@H](C)C4)c3)c2=O)cn1 [Example 72, 1-[(1-ethyl-1H-pyrazol-4-yl)methyl]-4-methyl-3-{3-[(2R)-2-methylmorpholin-4-yl]-5-(2,2,2-trifluoroethoxy)phenyl}-1,3-dihydro-2H-imidazol-2-one] |
